Data on twelve compounds can be found in patent US20030083271A1, “Topoisomerase I selective cytotoxic sugar derivatives of indolopyrrolocarbazoles” (priority 2001, published 2003).

Where only a bound is given, the exact number is not on record here.

For one assay, the system named is P388/CPT45 cells. As to the kind of experiment: Cytotoxicity in camptothecin-resistant P388/CPT45 cells relative to parental P388 (selectivity index R/S). The conditions noted are these: IC50 P388/CPT45 cells divided by IC50 parental P388 cells. It is filed as cell-based, murine. The source says:
The present invention includes fluoro sugar and other sugar derivatives of indolopyrrolocarbazoles of formula (I), as defined above. […] Most importantly, the instant invention describes topo I active compounds, related to compounds disclosed in WO 98/07433 and co-pending U.S. application, Ser. No. 08/914566 (both herein incorporated by reference), which display a surprising and unexpected selectivity index when evaluated for cytotoxicity in certain cell lines which express normal levels of topo I required for cell proliferation, compared with cell lines that are deficient in or underexpress topo I. Said “selectivity index” (R/S) was generated by dividing the cytotoxic IC50 of a particular compound against a camptothecin-resistant murine leukemia cell line, P388/CPT45, by the IC50 generated when using the parent P388 cell line. […] A level of selectivity was judged to be advantageous and beneficial in, for example, modulating potential undesirable side effects and/or toxicity. The compounds of the present invention were selected from compounds generically disclosed in WO 98/07433 and co-pending U.S. patent application, Ser. No. 08/914566, on the basis of an unexpected and unpredictable selectivity index (see Table I and II). […] Simple changes in the substitution of the sugar portion or the indolopyrrolocarbazole portion of the present invention will change the selectivity. This change in selectivity is not predictable by one skilled in the art.
(§1) Similarly, P338 murine leukemia cells were maintained in RPMI 1640 supplemented with 20% fetal bovine serum and 10 μM 2-mercaptoethanol. A camptothecin resistant subline, P388/CPT45, was selected for resistance to camptothecin and is over 1000-fold resistant to this compound (Woessner, et al. Oncol. Res. 1992, 4, 481-488).
(§2) In vitro cytotoxicity was assessed in tissue culture cells by MTS (3-(4,5-dimethylthiazol-2-yl)-5-(3-carboxymethoxyphenyl)-2-(4-sulphenyl)-2H-tetrazolium, inner salt) assay (Riss and Moravec, Mol. Biol. Cell 1992, 3 (Suppl.), 184a). Cells were plated at 8,000 cell/well in 96 well microtiter plates and 24 hours later serial dilutions of the test compounds were made and added to the cells. The cells were incubated at 37° C. for 72 hours, at which time the tetrazolium dye, MTS at 333 μg/ml (final concentration), in combination with the electron coupling agent phenazine methosulfate at 25 μM (final concentration) was added. A dehydrogenase enzyme in live cells reduces the MTS to a form that absorbs light at 492 nm which can be quantitated spectrophotometrically. The greater the absorbance the greater the number of live cells. The results are expressed as an IC50, which is the drug concentration required to inhibit cell proliferation (i.e., absorbance at 492 nm) to 50% of that of untreated control cells.
The selectivity index (R/S) is defined as the ratio obtained by dividing the IC50 value obtained using P388/CPT45 cells by that obtained using parental P388 cells. The R/S ratios used to determine the relative topo I selectivity of selected compounds of this invention are shown below in Table I.

In assay [1] the test system is P388 murine leukemia cells. As to the kind of experiment: In vitro cell-based cytotoxicity, parental P388 cells. The conditions noted are these: Mus musculus, 72 h, median cytotoxic concentration, 3 days continuous exposure. The method, then:
The proliferation inhibition activity against the murine P388 cell line was measured as follows. Evaluation of a soluble tetrazolium/formazan assay for cell growth and drug sensitivity in culture, using human and other tumor cell lines, was done according to the procedure described in Cancer Res. 1988, 48, 4827-4833. Cells were plated at 4000 cells/well in 96 well microtiter plates and 24 h later drugs were added and serially diluted. The cells were incubated at 37° C. for 72 h, at which time a tetrazolium dye, XTT, containing phenazine methosulfate was added. A dehydrogenase enzyme in live cells reduced the XTT to a form that absorbs light at 450 nm, which could be quantitated spectrophotometrically. The greater the absorbance the greater the number of live cells. The results are expressed as an IC50, which is the drug concentration required to inhibit cell proliferation (i.e., absorbance at 450 nm) to 50% of that of untreated control cells.
as §1, §2
The cytotoxic activity for certain compounds of the present invention, in both parental P388 and the camptothecin-resistant P388/CPT45 cell lines are shown below in Table I.

The target in assay [2] is T1, purified human topoisomerase I (Homo sapiens, UniProt P11387).
T1 construct: purchased Topogen
T1 sequence (P11387 1-765): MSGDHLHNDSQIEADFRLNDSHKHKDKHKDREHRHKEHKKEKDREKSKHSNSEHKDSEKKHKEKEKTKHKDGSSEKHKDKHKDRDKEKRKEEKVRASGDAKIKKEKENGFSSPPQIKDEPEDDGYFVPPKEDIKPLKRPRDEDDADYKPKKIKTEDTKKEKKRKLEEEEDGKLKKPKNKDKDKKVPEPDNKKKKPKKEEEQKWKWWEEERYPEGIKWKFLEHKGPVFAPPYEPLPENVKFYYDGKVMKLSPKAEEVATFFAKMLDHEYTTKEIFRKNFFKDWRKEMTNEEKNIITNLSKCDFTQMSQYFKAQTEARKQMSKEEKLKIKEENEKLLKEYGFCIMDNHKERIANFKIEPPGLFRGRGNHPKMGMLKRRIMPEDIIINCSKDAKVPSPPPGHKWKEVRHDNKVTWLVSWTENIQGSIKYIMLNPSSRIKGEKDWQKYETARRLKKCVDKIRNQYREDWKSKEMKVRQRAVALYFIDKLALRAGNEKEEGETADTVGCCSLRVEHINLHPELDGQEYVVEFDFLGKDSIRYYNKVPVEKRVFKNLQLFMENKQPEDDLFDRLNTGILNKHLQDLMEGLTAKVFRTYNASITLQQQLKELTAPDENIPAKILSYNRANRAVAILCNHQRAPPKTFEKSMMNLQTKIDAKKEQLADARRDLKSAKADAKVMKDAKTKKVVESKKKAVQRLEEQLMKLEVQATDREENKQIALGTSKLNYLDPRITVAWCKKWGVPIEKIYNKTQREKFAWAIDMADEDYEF
As to the kind of experiment: Topoisomerase I-mediated single strand DNA break induction (in vitro). The class given is biochemical. The conditions noted are these: median effect concentration for inducing single-strand breaks in the DNA substrate; read-out: Topo I EC50. The method, then:
Topoisomerase I activity was measured as described below. The procedure for assaying compound-induced, topoisomerase I-mediated single strand breaks in DNA was essentially that described by Hsiang, et al., (J. Biol. Chem. 1985, 260, 14873-14878). Samples dissolved in 100% DMSO as either […] or 10 mg/ml solutions, unless otherwise stated, were diluted in Tris-EDTA buffer. Marine bacteriophage PM2 DNA (Boehringer Mannheim) was also diluted in Tris-EDTA buffer to a concentration of 0.02 μg/μl. Different dilutions of the compound being evaluated were mixed with diluted DNA and this mixture was added to […] (one unit of enzyme activity is defined as the amount capable of relaxing 100 ng of supercoiled DNA in approximately 30 minutes at 37° C.) aliquots of purified human topoisomerase I (Topogen) in 2X reaction buffer to start the reaction. The compound-DNA-enzyme mixture was incubated for 30 minutes at 37° C. before stopping the reaction with warm stop buffer containing sodium dodecyl sulfate and proteinase K (Sigma). These mixtures were allowed to incubate at 37° C. for another 10 minutes, at which time the mixtures were removed from the waterbath and extracted with a 24:1 mixture of chloroform/isoamyl alcohol. Following centrifugation, aliquots of the aqueous phases were placed in wells of a 0.9% agarose (SeaKem) gel in Tris-borate buffer containing 0.5 μg/ml of ethidium bromide and subjected to electrophoresis for 15 hours to separate the different topological isomers and nicked and broken DNAs. After destaining the gel in water, the ethidium bromide stained DNA reaction products were visualized by exposing the gel to UV irradiation. Negatives of the photographs of the irradiated gels were scanned with a densitometer and areas under the peaks were calculated in order to obtain percent single strand DNA break formation for each sample. A median effective concentration (EC50) was obtained for each compound by interpolation between points of the resulting dose-effect curve which defines the potency of the compound for its effect in inducing topoisomerase I-mediated single strand breaks in DNA. The topoisomerase I activities for certain compounds of the present invention are shown below in Table I.

On to `CC(C)CC(N)C(=O)O[C@H]1[C@H](n2c3cc(F)c(F)cc3c3c4c(c5c6cc(F)c(F)cc6[nH]c5c32)C(=O)NC4=O)O[C@H](CF)C[C@@H]1O` (stereo in doubt) [Example 5, 12-[4,6-Dideoxy-6-fluoro-2-O-leucyl-β-D-glucopyranosyl]-2,3,9,10-tetrafluoro-12,13-dihydro-5H-indolo[2,3-a]pyrrolo[3,4-c]carbazole-5,7(6H)-dione], for which the “Selectivity Index R/S” value in the assay with P388/CPT45 cells came to 112.5. In addition, the half-maximal inhibitory concentration (IC50) in assay [1] was 32 nM.
As to `O=C(O)CSC[C@H]1O[C@@H](n2c3ccc(F)cc3c3c4c(c5c6cc(F)ccc6[nH]c5c32)C(=O)NC4=O)[C@H](O)[C@@H](O)[C@@H]1O` [Example 1], in the assay on P388/CPT45 cells, the “Selectivity Index R/S” value is 101.7. The IC50 in assay [1] worked out at 57 nM. In addition, in assay [2], the EC50 worked out at 50 nM.
Take `O=C1NC(=O)c2c1c1c3cc(F)ccc3sc1c1c2c2cc(F)ccc2n1[C@@H]1O[C@H](CF)[C@@H](O)[C@H](O)[C@H]1O` [Example 3]: the “Selectivity Index R/S” value in the assay on P388/CPT45 cells was 110.4. Besides, the concentration for half-maximal inhibition (IC50) in assay [1] came to 16 nM. Moreover, the EC50 in assay [2] was 60 nM.
Consider `O=C1NC(=O)c2c1c1c3cc(F)ccc3[nH]c1c1c2c2cc(F)ccc2n1[C@@H]1O[C@H](CF)[C@H](O)[C@H](O)[C@H]1O` [Example 4, 12-[6-Deoxy-6-fluoro-β-D-galactopyranosyl]-3,9-difluoro-12,13-dihydro-5H-indolo[2,3-a]pyrrolo[3,4-c]carbazole-5,7(6H)-dione], for which, in the assay with P388/CPT45 cells, the “Selectivity Index R/S” value came to 110.9. The IC50 in assay [1] stood at 12 nM. In addition, the EC50 in assay [2] was found to be 220 nM.
In the case of `NC[C@H]1O[C@@H](n2c3ccc(F)cc3c3c4c(c5c6cc(F)ccc6sc5c32)C(=O)NC4=O)[C@H](O)[C@@H](O)[C@@H]1O` [Example 6], the “Selectivity Index R/S” value with P388/CPT45 cells is above 116.3. Further, the IC50 in assay [1] was determined as 68 nM. Further, in assay [2], the EC50 came out at 70 nM.
On to `C[S+]([O-])C[C@H]1O[C@H](n2c3ccc(F)cc3c3c4c(c5c6cc(F)ccc6[nH]c5c32)C(=O)NC4=O)[C@H](O)[C@@H](O)[C@@H]1O` (some centres unmarked) [Example 7], for which the “Selectivity Index R/S” value in the assay with P388/CPT45 cells is above 116.4. In addition, in assay [1], the IC50 is 76 nM. Moreover, the EC50 in assay [2] was found to be 10 nM.
As for `C[C@@H]1C[C@H](O)[C@@H](O)[C@H](n2c3ccc(F)cc3c3c4c(c5c6cc(F)ccc6[nH]c5c32)C(=O)NC4=O)O1` [Example 11, 12-[4,6-Dideoxy-β-D-glucopyranosyl]-3,9-difluoro-12,13-dihydro-5H-indolo[2,3-a]pyrrolo[3,4-c]carbazole-5,7(6H)-dione], the “Selectivity Index R/S” value in the assay on P388/CPT45 cells was 125.3. For the same compound, in assay [1], the IC50 amounted to 16 nM.
As for `C[C@]1(O)C[C@@H](CO)O[C@@H](n2c3cc(F)c(F)cc3c3c4c(c5c6cc(F)c(F)cc6[nH]c5c32)C(=O)NC4=O)[C@@H]1O` [Example 18, 12-[4-Deoxy-3-methyl-β-D-glucopyranosyl]-2,3,9,10-tetrafluoro-12,13-dihydro-5H-indolo[2,3-a]pyrrolo[3,4-c]carbazole-5,7(6H)-dione], the “Selectivity Index R/S” value in the assay on P388/CPT45 cells is recorded as 184.8. For the same compound, in assay [1], the IC50 turned out to be 8 nM.
With `CNCC(=O)NC[C@H]1O[C@@H](n2c3ccc(F)cc3c3c4c(c5c6cc(F)ccc6sc5c32)C(=O)NC4=O)[C@H](O)[C@@H](O)[C@@H]1O` [Example 23, 12-[6-Deoxy-6-[(N-methylglycinyl)amino]-β-D-glucopyranosyl]-3,9-difluoro-5H, 13H-benzo[b]thienyl[2,3-a]pyrrolo[3,4-c]carbazole-5,7(6H)-dione], the “Selectivity Index R/S” value with P388/CPT45 cells is 306.8. In addition, the IC50 in assay [1] came out at 25 nM.
In the case of `C[C@@]1(O)C[C@@H](CO)O[C@@H](n2c3cc(F)c(F)cc3c3c4c(c5c6cc(F)c(F)cc6[nH]c5c32)C(=O)NC4=O)[C@@H]1O` [Example 29, 12-[4-Deoxy-3-methyl-β-D-allopyranosyl]-2,3,9,10-tetrafluoro-12,13-dihydro-5H-indolo[2,3-a]pyrrolo[3,4-c]carbazole-5,7(6H)-dione], in the assay on P388/CPT45 cells, the “Selectivity Index R/S” value came out at 539.6. The IC50 in assay [1] turned out to be 5 nM.
As to `O=C1NCc2c1c1c3cc(F)ccc3[nH]c1c1c2c2cc(F)ccc2n1[C@@H]1O[C@H](CO)[C@@H](F)[C@H](O)[C@H]1O` [Example 32, 12-[4-Deoxy-4-fluoro-β-D-glucopyranosyl]-3,9-difluoro-12,13-dihydro-5H-indolo[2,3-a]pyrrolo[3,4-c]carbazole-5(6H)-one], the “Selectivity Index R/S” value with P388/CPT45 cells is recorded as 1051.8. For the same compound, the IC50 in assay [1] was found to be 5 nM.
Consider `O=C1NCc2c1c1c3cc(F)ccc3n([C@@H]3O[C@H](CO)[C@@H](F)[C@H](O)[C@H]3O)c1c1[nH]c3ccc(F)cc3c21` [Example 34, 12-[4-Deoxy-4-fluoro-β-D-glucopyranosyl)-3,9-difluoro-12,13-dihydro-5H-indolo[2,3-a]pyrrolo[3,4-c]carbazole-7(6H)-one], for which the “Selectivity Index R/S” value with P388/CPT45 cells worked out at 2859.5. For the same compound, the half-inhibitory concentration (IC50) in assay [1] turned out to be 2 nM.

The term IC50 denotes the concentration at which inhibition is half-maximal. What is called EC50 is the concentration at which the effect is half-maximal.
